Data on 12 compounds can be found in PubChem BioAssay (NCI).

The structures appear in SMILES notation.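 Results reflect a 48-hour exposure of cells in 96-well plates to compound at five concentrations. TGI: total growth inhibition.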 Where only a bound is given, the exact number is not on record here.

Assay in all cases: NCI tumour cell line growth inhibition, 48 h
Experiment [1] relates to HCT-116 colon.
Experiment [2] concerns OVCAR-3 ovarian.
Experiment [3] relates to SN12C renal.
The test system of experiment [4] is OVCAR-8 ovarian.
In experiment [5] the test system is SK-OV-3 ovarian.
Experiment [6] has as its system HCT-15 colon.
Experiment [7] concerns SF-295 CNS.
Experiment [8] has as its system TK-10 renal.
Experiment [9] has as its system A549 NSCLC.
For experiment [10], the system named is SF-268 CNS.
For experiment [11], the system named is MALME-3M melanoma.
For experiment [12], the system named is CCRF-CEM leukemia.
Experiment [13] has as its system SR leukemia.

With `CC1(C)CC(=O)C2=C(C1)NC1=C(C(=O)CC(C)(C)C1)C2c1ccc([N+](=O)[O-])cc1`, the TGI in experiment [1], in experiment [2], in [3], in [4], in [5] and in [6] was above 100 µM throughout. Besides, the TGI in experiment [7], in experiment [8], in experiment [9] and in [10] was above 100 µM each time.

Consider `COc1ccc(C2Oc3cc(OC)c(O)c(C)c3[C@H]2C)cc1` (stereo not given in full), for which the TGI in experiment [11], in experiment [1], in experiment [2], in experiment [12], in experiment [4] and in experiment [5] was above 100 µM in each case. Also, the TGI in [6], in [7], in [8], in experiment [9] and in experiment [10] was above 100 µM throughout.

For `Cc1ccc2c(sc(-c3ccc4c(c3)sc(-c3ccc5c(c3)sc(-c3ccc(N(C)C)cc3)[n+]5C)[n+]4C)[n+]2C)c1S(=O)(=O)O` (tested in a mixture with another compound), the TGI in experiment [1], in [2], in [3], in [4], in experiment [5] and in experiment [6] was above 100 µM each time. For the same compound, the TGI in [7], in experiment [8], in [9] and in [10] was above 100 µM in each case.

As to `N#CC(C#N)=C(N)/C(C#N)=C/c1ccc2ccccc2n1`, the TGI in [11] is above 100 µM; in experiment [1], 28.4 µM; in experiment [2], 33.4 µM; in [3] it was above 100 µM; in [12], above 100 µM; in [4], above 100 µM. Further, the TGI is above 100 µM in experiment [5]; 80.1 µM in experiment [6]; 59.6 µM in experiment [7]; above 100 µM in experiment [8]; above 100 µM in experiment [9]; above 100 µM in experiment [10].

Consider `CC(=O)c1ccc2c(ccc(=O)n2C)c1`, for which the TGI in [11], in [1], in experiment [2], in experiment [3], in experiment [12] and in experiment [4] was above 100 µM in each case. For the same compound, the TGI in [5], in experiment [6], in experiment [7], in experiment [8], in experiment [9] and in experiment [10] was above 100 µM in each case.

With `CCCCSC1=N/C(=C\c2ccc(N(C)C)cc2)C(NN)=N1`, the TGI in [11], in experiment [1], in experiment [2], in [3], in experiment [12] and in experiment [4] was above 100 µM each time. The TGI in [5], in [6], in experiment [7], in experiment [8], in experiment [9] and in [10] was above 100 µM throughout.

For `NC(=O)NC(=O)c1cccc(CNc2ccc(C(=O)N[C@@H](CCC(=O)O)C(=O)O)cc2)n1`, the TGI in experiment [1], in experiment [2], in [13], in [3], in [4] and in experiment [5] was above 100 µM throughout. The TGI in [6], in experiment [7], in [8], in experiment [9] and in experiment [10] was above 100 µM in each case.

`CC(C)(C)NC(=O)NC12CC3CC(CC(F)(C3)C1)C2`: the TGI in experiment [11], in experiment [1], in [2], in experiment [12], in experiment [4] and in experiment [5] was above 100 µM throughout. The TGI in experiment [8] and in [9] was above 100 µM throughout.

For `Clc1ccccc1C1=NN(c2ccccc2)C2c3ccccc3OCC12` (stereo not given), the TGI in experiment [11], in experiment [1], in experiment [2], in experiment [12], in experiment [4] and in experiment [5] was above 100 µM throughout. Also, the TGI in [7], in experiment [8], in [9] and in experiment [10] was above 100 µM in each case.

Turning to `CCOC(=O)C(C(=O)c1ccccc1C(=O)OC)=P(c1ccccc1)(c1ccccc1)c1ccccc1`, the TGI in experiment [11], in [1], in experiment [2], in [3], in experiment [12] and in experiment [4] was above 10 µM throughout. The TGI in [5], in experiment [6], in [7], in experiment [8], in [9] and in experiment [10] was above 10 µM throughout.

Regarding `Cc1ccc(S(=O)(=O)N2C[C@](O)(c3ccccc3)[C@H]2C)cc1`, the TGI in [11], in [1], in [3], in experiment [12], in [4] and in experiment [5] was above 100 µM each time. The TGI in [6], in experiment [7], in [8], in experiment [9] and in [10] was above 100 µM throughout.

Consider `CCN1C[C@]2(C)CC[C@H](OC)C34C1C([C@H](OC(C)=O)[C@@H]32)[C@@]1(OC)C[C@H](OC)[C@H]2C[C@@H]4[C@@H]1[C@H]2O`, for which the TGI in experiment [11], in [1], in experiment [3], in [12], in experiment [4] and in [5] was above 100 µM each time. In addition, the TGI in experiment [6], in experiment [7], in experiment [8], in experiment [9] and in experiment [10] was above 100 µM throughout.
